Data taken from ChEMBL document CHEMBL5715954, “Silencing c-Myc translation as a therapeutic strategy through targeting PI3Kδ and CK1ε in hematological malignancies” (Blood, 2017).

What was measured:
Parameters in all cases: scale not given: the % may be the effect or the level left
[1] = biological target: MAP kinase-interacting serine/threonine-protein kinase 1 (Homo sapiens) (UniProt Q9BUB5); assay: Inhibition of human MNK1 assessed as enzyme activity at 1 uM using myelin basic protein as substrate preincubated for 20 mins followed by [gamma-33P]-ATP addition and measured after 120 mins by radiometric Hot-SpotSM Kinase assay relative to control
Chain of MAP kinase-interacting serine/threonine-protein kinase 1 (Homo sapiens) (Q9BUB5 whole entry, looked up): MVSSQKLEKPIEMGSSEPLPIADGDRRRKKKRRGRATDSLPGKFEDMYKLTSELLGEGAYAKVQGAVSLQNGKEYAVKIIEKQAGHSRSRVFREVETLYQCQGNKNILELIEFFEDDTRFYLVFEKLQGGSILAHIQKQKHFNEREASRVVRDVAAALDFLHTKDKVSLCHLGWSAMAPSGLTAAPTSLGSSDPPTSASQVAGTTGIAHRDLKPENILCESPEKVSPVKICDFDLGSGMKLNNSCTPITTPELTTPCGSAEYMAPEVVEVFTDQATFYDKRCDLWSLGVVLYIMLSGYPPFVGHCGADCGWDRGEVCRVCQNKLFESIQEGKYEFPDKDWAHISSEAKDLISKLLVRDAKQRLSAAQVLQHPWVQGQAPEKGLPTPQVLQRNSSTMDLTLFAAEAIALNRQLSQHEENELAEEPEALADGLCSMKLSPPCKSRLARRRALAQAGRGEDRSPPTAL

[2] = biological target: Myosin light chain kinase, smooth muscle (Homo sapiens) (UniProt Q15746); assay: Inhibition of human MLCK assessed as enzyme activity at 1 uM using KKLNRTLSFAEPG as substrate preincubated for 20 mins followed by [gamma-33P]-ATP addition and measured after 120 mins by radiometric Hot-SpotSM Kinase assay relative to control
Chain of Myosin light chain kinase, smooth muscle (Homo sapiens) (Q15746 whole entry): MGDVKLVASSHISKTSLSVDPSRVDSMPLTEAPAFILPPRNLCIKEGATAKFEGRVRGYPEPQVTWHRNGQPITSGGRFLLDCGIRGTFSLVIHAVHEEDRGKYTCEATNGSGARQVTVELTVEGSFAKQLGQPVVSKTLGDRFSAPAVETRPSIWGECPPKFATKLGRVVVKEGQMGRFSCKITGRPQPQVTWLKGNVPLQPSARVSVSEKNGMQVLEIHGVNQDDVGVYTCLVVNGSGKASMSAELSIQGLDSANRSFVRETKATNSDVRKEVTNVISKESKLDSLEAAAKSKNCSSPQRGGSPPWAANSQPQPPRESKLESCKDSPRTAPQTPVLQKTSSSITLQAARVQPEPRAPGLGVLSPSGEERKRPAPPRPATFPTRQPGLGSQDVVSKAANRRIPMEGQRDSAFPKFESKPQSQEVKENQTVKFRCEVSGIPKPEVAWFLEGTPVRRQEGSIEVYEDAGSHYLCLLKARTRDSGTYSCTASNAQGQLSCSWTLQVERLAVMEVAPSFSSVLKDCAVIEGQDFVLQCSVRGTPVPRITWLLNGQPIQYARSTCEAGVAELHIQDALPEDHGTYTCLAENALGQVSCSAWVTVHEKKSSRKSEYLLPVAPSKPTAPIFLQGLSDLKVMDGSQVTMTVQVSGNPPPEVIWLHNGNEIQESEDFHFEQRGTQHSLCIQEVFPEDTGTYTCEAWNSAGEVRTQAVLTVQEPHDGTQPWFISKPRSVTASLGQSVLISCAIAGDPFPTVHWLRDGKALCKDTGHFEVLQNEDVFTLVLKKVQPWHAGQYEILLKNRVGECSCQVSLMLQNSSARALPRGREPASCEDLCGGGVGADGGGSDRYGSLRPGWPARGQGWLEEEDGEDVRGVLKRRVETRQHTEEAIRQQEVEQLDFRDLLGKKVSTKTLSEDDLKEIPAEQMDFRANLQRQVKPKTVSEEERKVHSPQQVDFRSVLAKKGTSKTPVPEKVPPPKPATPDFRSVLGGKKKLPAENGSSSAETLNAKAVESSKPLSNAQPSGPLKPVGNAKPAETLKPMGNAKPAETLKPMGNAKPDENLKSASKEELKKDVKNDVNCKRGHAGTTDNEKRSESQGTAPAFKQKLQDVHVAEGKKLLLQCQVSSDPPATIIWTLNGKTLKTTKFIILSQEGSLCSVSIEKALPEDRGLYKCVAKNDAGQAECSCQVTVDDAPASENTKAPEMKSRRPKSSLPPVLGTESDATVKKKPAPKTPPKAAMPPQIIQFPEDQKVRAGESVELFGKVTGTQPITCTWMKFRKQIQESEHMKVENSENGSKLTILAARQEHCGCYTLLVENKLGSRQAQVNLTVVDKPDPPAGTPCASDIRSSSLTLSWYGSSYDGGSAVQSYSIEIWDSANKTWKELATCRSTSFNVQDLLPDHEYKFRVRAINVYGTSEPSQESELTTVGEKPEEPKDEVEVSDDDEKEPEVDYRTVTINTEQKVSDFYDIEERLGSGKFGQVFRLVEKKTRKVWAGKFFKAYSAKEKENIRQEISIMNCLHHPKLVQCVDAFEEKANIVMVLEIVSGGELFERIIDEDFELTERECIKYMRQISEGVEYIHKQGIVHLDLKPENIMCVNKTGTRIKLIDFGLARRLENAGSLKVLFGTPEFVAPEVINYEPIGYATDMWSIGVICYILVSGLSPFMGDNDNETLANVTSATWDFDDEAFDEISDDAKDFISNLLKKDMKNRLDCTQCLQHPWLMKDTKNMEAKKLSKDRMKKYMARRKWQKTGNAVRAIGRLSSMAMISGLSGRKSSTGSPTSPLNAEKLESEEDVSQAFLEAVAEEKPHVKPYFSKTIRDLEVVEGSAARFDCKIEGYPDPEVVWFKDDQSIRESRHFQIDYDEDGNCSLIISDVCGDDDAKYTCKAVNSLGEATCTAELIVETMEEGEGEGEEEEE

[3] = biological target: Tau-tubulin kinase 2 (Homo sapiens) (UniProt Q6IQ55); assay: Inhibition of human TTBK2 assessed as enzyme activity at 1 uM using myelin basic protein as substrate preincubated for 20 mins followed by [gamma-33P]-ATP addition and measured after 120 mins by radiometric Hot-SpotSM Kinase assay relative to control
[4] = biological target: MAP kinase-activated protein kinase 2 (Homo sapiens) (UniProt P49137); assay: Inhibition of human MAPKAPK2 assessed as enzyme activity at 1 uM using KKLNRTLSVA as substrate preincubated for 20 mins followed by [gamma-33P]-ATP addition and measured after 120 mins by radiometric Hot-SpotSM Kinase assay relative to control
[5] = biological target: Tyrosine-protein kinase ABL1 (Homo sapiens) (UniProt P00519); assay: Inhibition of human ABL1 assessed as enzyme activity at 1 uM using EAIYAAPFAKKK as substrate preincubated for 20 mins followed by [gamma-33P]-ATP addition and measured after 120 mins by radiometric Hot-SpotSM Kinase assay relative to control
[6] = biological target: MAP kinase-interacting serine/threonine-protein kinase 2 (Homo sapiens) (UniProt Q9HBH9); assay: Inhibition of human MNK2 assessed as enzyme activity at 1 uM using myelin basic protein as substrate preincubated for 20 mins followed by [gamma-33P]-ATP addition and measured after 120 mins by radiometric Hot-SpotSM Kinase assay relative to control
Chain of MAP kinase-interacting serine/threonine-protein kinase 2 (Homo sapiens) (Q9HBH9 whole entry, looked up): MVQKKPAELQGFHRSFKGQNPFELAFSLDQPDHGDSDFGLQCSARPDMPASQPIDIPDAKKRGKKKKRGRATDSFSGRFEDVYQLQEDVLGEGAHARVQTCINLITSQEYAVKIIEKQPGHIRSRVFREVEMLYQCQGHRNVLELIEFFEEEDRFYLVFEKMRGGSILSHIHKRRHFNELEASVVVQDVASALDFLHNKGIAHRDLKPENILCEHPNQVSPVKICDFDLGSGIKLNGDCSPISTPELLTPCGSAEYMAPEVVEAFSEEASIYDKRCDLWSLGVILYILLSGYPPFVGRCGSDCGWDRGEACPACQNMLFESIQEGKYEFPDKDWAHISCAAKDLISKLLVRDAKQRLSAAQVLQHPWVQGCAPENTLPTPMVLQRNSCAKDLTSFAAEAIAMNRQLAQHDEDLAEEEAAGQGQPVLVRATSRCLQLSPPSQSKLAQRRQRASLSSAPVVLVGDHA

[7] = biological target: Vascular endothelial growth factor receptor 2 (Homo sapiens) (UniProt P35968); assay: Inhibition of human KDR assessed as enzyme activity at 1 uM using poly[Glu:Tyr] (4:1) as substrate preincubated for 20 mins followed by [gamma-33P]-ATP addition and measured after 120 mins by radiometric Hot-SpotSM Kinase assay relative to control
[8] = biological target: Calcium/calmodulin-dependent protein kinase type 1B (Homo sapiens) (UniProt Q6P2M8); assay: Inhibition of human CAMK1b assessed as enzyme activity at 1 uM using KKALRRQETVDAL as substrate preincubated for 20 mins followed by [gamma-33P]-ATP addition and measured after 120 mins by radiometric Hot-SpotSM Kinase assay relative to control
[9] = biological target: Interleukin-1 receptor-associated kinase 1 (Homo sapiens) (UniProt P51617); assay: Inhibition of human IRAK1 assessed as enzyme activity at 1 uM using myelin basic protein as substrate preincubated for 20 mins followed by [gamma-33P]-ATP addition and measured after 120 mins by radiometric Hot-SpotSM Kinase assay relative to control
[10] = biological target: Tyrosine-protein kinase Blk (Homo sapiens) (UniProt P51451); assay: Inhibition of human BLK assessed as enzyme activity at 1 uM using poly[Glu:Tyr] (4:1) as substrate preincubated for 20 mins followed by [gamma-33P]-ATP addition and measured after 120 mins by radiometric Hot-SpotSM Kinase assay relative to control
[11] = biological target: Citron Rho-interacting kinase (Homo sapiens) (UniProt O14578); assay: Inhibition of human STK21 assessed as enzyme activity at 1 uM using KKRPQRRYSNVF as substrate preincubated for 20 mins followed by [gamma-33P]-ATP addition and measured after 120 mins by radiometric Hot-SpotSM Kinase assay relative to control
Chain of Citron Rho-interacting kinase (Homo sapiens) (O14578 whole entry): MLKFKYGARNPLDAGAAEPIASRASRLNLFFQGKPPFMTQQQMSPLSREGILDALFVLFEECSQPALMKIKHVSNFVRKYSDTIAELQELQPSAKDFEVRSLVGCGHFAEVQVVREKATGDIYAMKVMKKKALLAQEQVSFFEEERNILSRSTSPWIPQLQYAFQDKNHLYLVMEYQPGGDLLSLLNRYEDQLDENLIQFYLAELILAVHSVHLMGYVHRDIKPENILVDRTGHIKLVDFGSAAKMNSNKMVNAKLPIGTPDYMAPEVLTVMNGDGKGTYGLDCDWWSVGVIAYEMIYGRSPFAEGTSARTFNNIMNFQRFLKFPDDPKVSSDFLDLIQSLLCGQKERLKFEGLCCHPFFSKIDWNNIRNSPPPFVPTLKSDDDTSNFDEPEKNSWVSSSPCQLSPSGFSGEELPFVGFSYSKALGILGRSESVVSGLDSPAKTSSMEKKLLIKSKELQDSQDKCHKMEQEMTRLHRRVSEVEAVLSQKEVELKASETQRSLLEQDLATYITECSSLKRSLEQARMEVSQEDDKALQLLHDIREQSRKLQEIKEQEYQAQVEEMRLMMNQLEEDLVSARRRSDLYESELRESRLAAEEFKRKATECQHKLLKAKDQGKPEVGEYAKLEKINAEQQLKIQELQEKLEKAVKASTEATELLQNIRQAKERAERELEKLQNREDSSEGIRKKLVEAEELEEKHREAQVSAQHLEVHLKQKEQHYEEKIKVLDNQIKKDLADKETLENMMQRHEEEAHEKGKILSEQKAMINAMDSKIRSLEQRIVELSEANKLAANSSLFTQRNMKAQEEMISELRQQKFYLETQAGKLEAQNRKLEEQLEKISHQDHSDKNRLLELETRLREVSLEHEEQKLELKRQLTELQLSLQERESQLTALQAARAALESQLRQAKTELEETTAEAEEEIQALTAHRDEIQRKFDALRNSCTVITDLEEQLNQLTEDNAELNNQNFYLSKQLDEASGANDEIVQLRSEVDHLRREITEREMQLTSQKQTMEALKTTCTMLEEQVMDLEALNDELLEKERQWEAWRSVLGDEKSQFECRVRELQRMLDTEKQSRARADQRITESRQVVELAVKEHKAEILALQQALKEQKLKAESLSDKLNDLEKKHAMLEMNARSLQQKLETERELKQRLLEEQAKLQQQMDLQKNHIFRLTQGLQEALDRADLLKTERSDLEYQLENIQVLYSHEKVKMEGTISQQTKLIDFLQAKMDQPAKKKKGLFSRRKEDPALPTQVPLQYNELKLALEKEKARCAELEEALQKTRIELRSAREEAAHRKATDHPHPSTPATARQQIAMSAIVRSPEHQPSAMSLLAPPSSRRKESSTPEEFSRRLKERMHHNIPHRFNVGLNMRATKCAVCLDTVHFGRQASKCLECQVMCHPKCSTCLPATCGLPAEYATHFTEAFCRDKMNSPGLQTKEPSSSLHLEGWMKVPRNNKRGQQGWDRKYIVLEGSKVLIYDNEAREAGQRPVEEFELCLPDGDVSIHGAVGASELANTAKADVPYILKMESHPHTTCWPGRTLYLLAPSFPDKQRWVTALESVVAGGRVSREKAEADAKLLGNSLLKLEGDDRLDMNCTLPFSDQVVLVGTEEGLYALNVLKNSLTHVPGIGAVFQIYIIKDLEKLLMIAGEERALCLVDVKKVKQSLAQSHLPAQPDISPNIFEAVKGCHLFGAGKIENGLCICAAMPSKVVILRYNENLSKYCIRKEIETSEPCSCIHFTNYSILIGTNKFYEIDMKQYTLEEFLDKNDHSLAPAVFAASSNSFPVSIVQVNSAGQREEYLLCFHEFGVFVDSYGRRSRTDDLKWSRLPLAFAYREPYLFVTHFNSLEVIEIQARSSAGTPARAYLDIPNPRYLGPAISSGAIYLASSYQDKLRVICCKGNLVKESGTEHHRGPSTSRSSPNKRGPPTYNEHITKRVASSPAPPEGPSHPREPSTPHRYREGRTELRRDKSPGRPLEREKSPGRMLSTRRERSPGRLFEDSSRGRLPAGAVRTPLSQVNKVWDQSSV

[12] = biological target: TRAF2 and NCK-interacting protein kinase (Homo sapiens) (UniProt Q9UKE5); assay: Inhibition of human TNIK assessed as enzyme activity at 1 uM using RLGRDKYKTLRQIRQ as substrate preincubated for 20 mins followed by [gamma-33P]-ATP addition and measured after 120 mins by radiometric Hot-SpotSM Kinase assay relative to control
[13] = biological target: Serine/threonine-protein kinase N3 (Homo sapiens) (UniProt Q6P5Z2); assay: Inhibition of human PKN3 assessed as enzyme activity at 1 uM using KKLNRTLSVA as substrate preincubated for 20 mins followed by [gamma-33P]-ATP addition and measured after 120 mins by radiometric Hot-SpotSM Kinase assay relative to control
[14] = biological target: T1, Serine/threonine-protein kinase DCLK1 (Homo sapiens) (UniProt O15075); assay: Inhibition of human DCAMKL1 assessed as enzyme activity at 1 uM using KKLNRTLSFAEPG as substrate preincubated for 20 mins followed by [gamma-33P]-ATP addition and measured after 120 mins by radiometric Hot-SpotSM Kinase assay relative to control
T1 sequence (whole entry): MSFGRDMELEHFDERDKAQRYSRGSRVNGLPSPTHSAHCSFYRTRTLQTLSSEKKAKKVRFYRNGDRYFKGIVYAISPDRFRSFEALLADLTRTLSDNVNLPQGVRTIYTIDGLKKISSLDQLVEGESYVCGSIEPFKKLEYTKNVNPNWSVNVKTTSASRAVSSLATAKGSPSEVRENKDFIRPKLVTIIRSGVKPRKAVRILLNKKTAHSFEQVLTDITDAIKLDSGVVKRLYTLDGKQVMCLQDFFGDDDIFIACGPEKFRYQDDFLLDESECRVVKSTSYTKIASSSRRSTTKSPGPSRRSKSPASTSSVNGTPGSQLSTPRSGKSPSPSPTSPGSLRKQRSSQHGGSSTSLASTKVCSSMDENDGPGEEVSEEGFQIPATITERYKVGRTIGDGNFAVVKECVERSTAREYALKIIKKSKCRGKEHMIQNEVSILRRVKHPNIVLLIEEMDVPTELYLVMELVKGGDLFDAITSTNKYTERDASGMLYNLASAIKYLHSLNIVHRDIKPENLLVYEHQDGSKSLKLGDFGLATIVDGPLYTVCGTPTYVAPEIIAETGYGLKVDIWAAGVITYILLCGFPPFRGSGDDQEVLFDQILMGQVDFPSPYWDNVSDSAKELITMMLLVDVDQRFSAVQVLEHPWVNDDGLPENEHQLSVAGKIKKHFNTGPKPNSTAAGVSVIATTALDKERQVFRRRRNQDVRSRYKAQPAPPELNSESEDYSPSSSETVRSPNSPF

Row | Compound | Activity [1] | Activity [2] | Activity [3] | Activity [4] | Activity [5] | Activity [6] | Activity [7] | Activity [8] | Activity [9] | Activity [10] | Activity [11] | Activity [12] | Activity [13] | Activity [14]
1 | CC[C@H](Nc1ncnc2[nH]cnc12)c1nc2cccc(F)c2c(=O)n1-c1ccccc1 | 96.3% | 96.1% | 90.6% | 96.2% | 99.5% | 105% | 97.7% | 103% | 106% | 97.6% | 101% | 94.5% | 97.8% | 89.3%
2 | C[C@H](Nc1ncnc2nc[nH]c12)c1cc2cccc(Cl)c2c(=O)n1-c1ccccc1 | 93.5% | 91.7% | 95.8% | 96.5% | 97.2% | 99.9% | 95.9% | 102% | 102% | 96.9% | 93.5% | 99.7% | 101% | 89.4%
3 | CC(C)Oc1ccc(-c2nn([C@@H](C)c3oc4ccc(F)cc4c(=O)c3-c3cccc(F)c3)c3ncnc(N)c23)cc1F [UMBRALISIB] | 92% | 92.4% | 96.7% | 91.4% | 95.1% | 102% | 101% | 100% | 105% | 99.7% | 113% | 97.7% | 93.5% | 88.3%
